Reference: PubChem BioAssay (NCI)
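Five compound concentrations were applied to cells in 96-well plates for 48 hours; endpoints were derived by simple linear interpolation of the resulting dose-response curve. Here, GI50 denotes the concentration required for 50% inhibition of growth. At the TGI there is no net growth.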

Assays:
Assay in all cases: inhibition of tumour cell growth, NCI panel, 48 h
UACC-257 melanoma = tested on: UACC-257 melanoma
K-562 leukemia = tested on: K-562 leukemia
MOLT-4 leukemia = tested on: MOLT-4 leukemia
IGROV1 ovarian = tested on: IGROV1 ovarian
HCT-15 colon = tested on: HCT-15 colon
M14 melanoma = tested on: M14 melanoma
SNB-75 CNS = tested on: SNB-75 CNS
SK-MEL-28 melanoma = tested on: SK-MEL-28 melanoma
UO-31 renal = tested on: UO-31 renal
786-0 renal = tested on: 786-0 renal
RXF 393 renal = tested on: RXF 393 renal
EKVX NSCLC = tested on: EKVX NSCLC
NCI-H226 lung = tested on: NCI-H226 lung
SNB-19 CNS = tested on: SNB-19 CNS
NCI-H522 lung = tested on: NCI-H522 lung
SK-OV-3 ovarian = tested on: SK-OV-3 ovarian
NCI-H23 lung = tested on: NCI-H23 lung
HT29 colon = tested on: HT29 colon
BT-549 breast = tested on: BT-549 breast
CCRF-CEM leukemia = tested on: CCRF-CEM leukemia
HCT-116 colon = tested on: HCT-116 colon
UACC-62 melanoma = tested on: UACC-62 melanoma
MALME-3M melanoma = tested on: MALME-3M melanoma
NCI-H460 lung = tested on: NCI-H460 lung
SF-295 CNS = tested on: SF-295 CNS
HL-60(TB) leukemia = tested on: HL-60(TB) leukemia
HOP-92 NSCLC = tested on: HOP-92 NSCLC
SK-MEL-2 melanoma = tested on: SK-MEL-2 melanoma
OVCAR-8 ovarian = tested on: OVCAR-8 ovarian
ACHN renal = tested on: ACHN renal
SW-620 colon = tested on: SW-620 colon
LOX IMVI melanoma = tested on: LOX IMVI melanoma
TK-10 renal = tested on: TK-10 renal
A549 NSCLC = tested on: A549 NSCLC
PC-3 prostate = tested on: PC-3 prostate
MCF7 breast = tested on: MCF7 breast
SN12C renal = tested on: SN12C renal
CAKI-1 renal = tested on: CAKI-1 renal
SF-268 CNS = tested on: SF-268 CNS
OVCAR-5 ovarian = tested on: OVCAR-5 ovarian
COLO 205 colon = tested on: COLO 205 colon
OVCAR-4 ovarian = tested on: OVCAR-4 ovarian
HS 578T breast = tested on: HS 578T breast
NCI/ADR-RES ovarian = tested on: NCI/ADR-RES ovarian
A498 renal = tested on: A498 renal
U251 CNS = tested on: U251 CNS
SR leukemia = tested on: SR leukemia
KM12 colon = tested on: KM12 colon
MDA-MB-435 = tested on: MDA-MB-435
MDA-MB-231 breast = tested on: MDA-MB-231 breast
SK-MEL-5 melanoma = tested on: SK-MEL-5 melanoma
DU-145 prostate = tested on: DU-145 prostate
RPMI-8226 leukemia = tested on: RPMI-8226 leukemia
HCC-2998 colon = tested on: HCC-2998 colon
HOP-62 NSCLC = tested on: HOP-62 NSCLC
OVCAR-3 ovarian = tested on: OVCAR-3 ovarian
SF-539 CNS = tested on: SF-539 CNS

O=S(=O)(Nc1cccc2ccccc12)c1ccc(-c2cnc(C3CC3)o2)cc1
GI50 (UACC-257 melanoma): 5940 nM | TGI (UACC-257 melanoma): 45700 nM | GI50 (K-562 leukemia): 41.7 nM | TGI (K-562 leukemia): > 73200 nM | GI50 (MOLT-4 leukemia): 101 nM | TGI (MOLT-4 leukemia): > 49400 nM | GI50 (IGROV1 ovarian): 62.6 nM | TGI (IGROV1 ovarian): > 100000 nM | GI50 (HCT-15 colon): 50.5 nM | TGI (HCT-15 colon): > 42000 nM | GI50 (M14 melanoma): 76.4 nM | TGI (M14 melanoma): > 48500 nM | GI50 (SNB-75 CNS): 30.1 nM | TGI (SNB-75 CNS): 82500 nM | GI50 (SK-MEL-28 melanoma): 3440 nM | TGI (SK-MEL-28 melanoma): > 100000 nM | GI50 (UO-31 renal): 74.5 nM | TGI (UO-31 renal): > 59200 nM | GI50 (786-0 renal): 71.2 nM | TGI (786-0 renal): > 82900 nM | GI50 (RXF 393 renal): 23.7 nM | TGI (RXF 393 renal): 141 nM | GI50 (EKVX NSCLC): 276 nM | TGI (EKVX NSCLC): > 91400 nM | GI50 (NCI-H226 lung): 106 nM | TGI (NCI-H226 lung): 30600 nM | GI50 (SNB-19 CNS): 63 nM | TGI (SNB-19 CNS): > 100000 nM | GI50 (NCI-H522 lung): 61.2 nM | TGI (NCI-H522 lung): 24000 nM | GI50 (SK-OV-3 ovarian): 2190 nM | TGI (SK-OV-3 ovarian): > 85800 nM | GI50 (NCI-H23 lung): 186 nM | TGI (NCI-H23 lung): 31500 nM | GI50 (HT29 colon): 48.4 nM | TGI (HT29 colon): > 68900 nM | GI50 (BT-549 breast): 4200 nM | TGI (BT-549 breast): 34800 nM | GI50 (CCRF-CEM leukemia): 41.2 nM | TGI (CCRF-CEM leukemia): > 100000 nM | GI50 (HCT-116 colon): 47.3 nM | TGI (HCT-116 colon): > 74500 nM | GI50 (UACC-62 melanoma): 40.2 nM | TGI (UACC-62 melanoma): 23500 nM | GI50 (MALME-3M melanoma): 12100 nM | TGI (MALME-3M melanoma): 67300 nM | GI50 (NCI-H460 lung): 43.5 nM | TGI (NCI-H460 lung): 12600 nM | GI50 (SF-295 CNS): 40.1 nM | TGI (SF-295 CNS): 15600 nM | GI50 (HL-60(TB) leukemia): 30.1 nM | TGI (HL-60(TB) leukemia): 388 nM | GI50 (HOP-92 NSCLC): < 19.3 nM | TGI (HOP-92 NSCLC): 4790 nM | GI50 (SK-MEL-2 melanoma): 2420 nM | TGI (SK-MEL-2 melanoma): 56500 nM | GI50 (OVCAR-8 ovarian): 347 nM | TGI (OVCAR-8 ovarian): > 100000 nM | GI50 (ACHN renal): 68.4 nM | TGI (ACHN renal): > 100000 nM | GI50 (SW-620 colon): 48.9 nM | TGI (SW-620 colon): > 100000 nM | GI50 (LOX IMVI melanoma): 48.8 nM | TGI (LOX IMVI melanoma): 26000 nM | GI50 (TK-10 renal): 19700 nM | TGI (TK-10 renal): > 100000 nM | GI50 (A549 NSCLC): 141 nM | TGI (A549 NSCLC): > 100000 nM | GI50 (PC-3 prostate): 47.4 nM | TGI (PC-3 prostate): > 59900 nM | GI50 (MCF7 breast): 32.9 nM | TGI (MCF7 breast): > 57700 nM | GI50 (SN12C renal): 508 nM | TGI (SN12C renal): > 64600 nM | GI50 (CAKI-1 renal): 46.3 nM | TGI (CAKI-1 renal): > 81700 nM | GI50 (SF-268 CNS): 716 nM | TGI (SF-268 CNS): > 100000 nM | GI50 (OVCAR-5 ovarian): 450 nM | TGI (OVCAR-5 ovarian): > 100000 nM | GI50 (COLO 205 colon): 99 nM | TGI (COLO 205 colon): 1350 nM | GI50 (OVCAR-4 ovarian): 88 nM | TGI (OVCAR-4 ovarian): > 100000 nM | GI50 (HS 578T breast): 56.3 nM | TGI (HS 578T breast): > 76100 nM | GI50 (NCI/ADR-RES ovarian): 45.5 nM | TGI (NCI/ADR-RES ovarian): 16700 nM | GI50 (A498 renal): 33.4 nM | TGI (A498 renal): 500 nM | GI50 (U251 CNS): 74.5 nM | TGI (U251 CNS): 97100 nM | GI50 (SR leukemia): 40.2 nM | TGI (SR leukemia): > 34300 nM | GI50 (KM12 colon): 49.8 nM | TGI (KM12 colon): 14900 nM | GI50 (MDA-MB-435): 24.3 nM | TGI (MDA-MB-435): 85.4 nM | GI50 (MDA-MB-231 breast): 389 nM | TGI (MDA-MB-231 breast): > 48700 nM | GI50 (SK-MEL-5 melanoma): 56.8 nM | TGI (SK-MEL-5 melanoma): 3410 nM | GI50 (DU-145 prostate): 144 nM | TGI (DU-145 prostate): > 100000 nM | GI50 (RPMI-8226 leukemia): 53.6 nM | TGI (RPMI-8226 leukemia): 20000 nM | GI50 (HCC-2998 colon): 220 nM | TGI (HCC-2998 colon): 23900 nM | GI50 (HOP-62 NSCLC): 99.5 nM | TGI (HOP-62 NSCLC): > 89700 nM | GI50 (OVCAR-3 ovarian): 42.5 nM | TGI (OVCAR-3 ovarian): 15700 nM | GI50 (SF-539 CNS): 42.3 nM | TGI (SF-539 CNS): 2070 nM
